Data reported in patent US20140179726A1, “GUT MICROFLORA AS BIOMARKERS FOR THE PROGNOSIS OF CIRRHOSIS AND BRAIN DYSFUNCTION” (priority 2011, published 2014).
“And” between values parts separate entries of the source, which are not always exact repeats. Identical values can stand only once.

Assays:
[1] = tested on: stool microflora; assay: Prospective study after lactulose withdrawal: stool microbiome on lactulose and 14 days off; type: in vivo, human
Method: Prospective study: A selected group of seven cirrhotic patients in the HE group currently only on lactulose (who were also included in the cross-sectional study) were systematically withdrawn from therapy. Their diet was controlled over the study period. Their stool microflora was analyzed while on lactulose and then 14 days off of lactulose therapy. Day 14 was chosen since prior culture-based studies have shown a change in fecal flora after lactulose initiation within that time frame (31).
Interrogation of the Microbiome: Stool was collected and DNA extracted for microbiome analysis within 24 hours of collection from patients and controls using published techniques (29). We first routinely use Length Heterogeneity PCR (LH-PCR) fingerprinting of the 16S rRNA to rapidly survey our samples and standardize the community amplification. We then interrogated the microbial taxa associated with the gut fecal microbiome using Multitag Pyrosequencing (MTPS). This technique allows the rapid sequencing of multiple samples at one time yielding thousands of sequence reads per sample (12).
MTPS: We employed the MTPS process to characterize the microbiome from the fecal samples. Specifically, we have generated a set of 96 emulsion PCR fusion primers that contain the 454 emulsion PCR linkers on the 27F and 355R primers and a different 8 base “barcode” between the A adapter and 27F primer. Thus, each fecal sample was amplified with unique bar-coded forward 16S rRNA primers and then up to 96 samples were pooled and subjected to emulsion PCR and pyrosequenced using a GS-FLX pyrosequencer (Roche). Data from each pooled sample were “deconvoluted” by sorting the sequences into bins based on the barcodes using custom PERL scripts. Thus, we were able to normalize each sample by the total number of reads from each barcode. We have noted that ligating tagged primers to PCR amplicons distorts the abundances of the communities and thus it is critical to incorporate the tags during the original amplification step (12). Several groups have employed various barcoding strategies to analyze multiple samples and this strategy is now well accepted (38).
RDP10 Analysis: We identified the taxa present in each sample using the Bayesian analysis tool in Version 10 of the Ribosomal Database Project (RDP10). The abundances of the bacterial identifications were then normalized using a custom PERL script and taxa present at >1% of the community were tabulated. We chose this cutoff because of our a priori assumption that taxa present in <1% of the community vary between individuals and have minimal contribution to the functionality of that community and 2,000 reads per sample will only reliably identify community components that are greater than 1% in abundance (13).
The cirrhosis group was divided into those with and without HE and were compared. Data from the significant variables between HE and non-HE groups were combined in a MANOVA model. Within HE patients, comparison was made between those on lactulose alone to those with lactulose and rifaximin. Microbiome abundance comparisons between groups were made at a family level using non-parametric tests. A comparison was performed between patients on and withdrawn off of lactulose therapy using the Wilcoxon matched-pair signed rank tests. All values are presented as mean±standard deviation unless mentioned otherwise.

[2] = tested on: mucosal microbiome; assay: Colonic mucosal microbiome by MTPS, compared using Metastats (Example 2); type: in vivo, human; conditions: colonic mucosa, HE patients
Method: Interrogation of the Microbiome: Stool was collected and DNA extracted for microbiome analysis using published techniques (30). A subset underwent an un-sedated, unprepared flexible sigmoidoscopy during which a pinch biopsy of the recto-sigmoid mucosa was obtained, which was snap-frozen and stored at −80° C. till the analysis. We first use Length Heterogeneity PCR (LH-PCR) fingerprinting of the 16S rRNA to rapidly survey samples and standardize the community amplification. We then interrogated the microbial taxa associated with the gut fecal microbiome using Multitag Pyrosequencing (MTPS) (16). This technique allows for rapid sequencing of multiple samples at one time yielding thousands of sequence reads per sample.
Microbiome Community Fingerprinting: LH-PCR was done to standardize the community analysis as previously published. Briefly, total genomic DNA was extracted from tissue using Bio101 kit from MP Biomedicals Inc., Montreal, Quebec as per the manufacturer's instructions. About 10 ng of extracted DNA was amplified by PCR using a fluorescently labeled forward primer 27F (5′-(6FAM) AGAGTTTGATCCTGGCTCA G-3′, SEQ ID NO: 1) and unlabeled reverse primer 355R′ (5′-GCTGCCTCCCGTAGGAGT-3′, SEQ ID NO: 2). Both primers are universal primers for Bacteria (23). The LH-PCR products were diluted according to their intensity on agarose gel electrophoresis and mixed with ILS-600 size standards (Promega) and HiDi Formamide (Applied Biosystems, Foster City, Calif.). The diluted samples were then separated on a ABI 3130x1 fluorescent capillary sequencer (Applied Biosystems, Foster City, Calif.) and processed using the Genemapper™ software package (Applied Biosystems, Foster City, Calif.). Normalized peak areas were calculated using a custom PERL script and operational taxonomic units (OTUs) constituting less than 1% of the total community from each sample were eliminated from the analysis to remove the variable low abundance components within the communities.
MTPS: We employed the MTPS process to characterize the microbiome from the fecal and biopsy samples. Specifically, we have generated a set of 96 emulsion PCR fusion primers that contain the 454 emulsion PCR linkers on the 27F and 355R primers and a different 8 base “barcode” between the A adapter and 27F primer. Thus, each fecal sample was amplified with unique bar-coded forward 16S rRNA primers and then up to 96 samples were pooled and subjected to emulsion PCR and pyrosequenced using a GS-FLX pyrosequencer (Roche). Data from each pooled sample were “deconvoluted” by sorting the sequences into bins based on the barcodes using custom PERL scripts. Thus, we were able to normalize each sample by the total number of reads from each barcode. We have noted that ligating tagged primers to PCR amplicons distorts the abundances of the communities and thus it is critical to incorporate the tags during the original amplification step.
Microbiome Community Analysis: We identified the taxa present in each sample using the Bayesian analysis tool in Version 10 of the Ribosomal Database Project (RDP10). […] We chose this cutoff because of our a priori assumption that genera present in <1% of the community vary between individuals and have minimal contribution to the functionality of that community and 2,000 reads per sample will only reliably identify community components that are greater than 1% in abundance (16). […]

[3] = stool, baseline on lactulose, seven patients

In the case of `OC[C@H]1O[C@@H](O[C@@H]2[C@@H](CO)OC(O)(CO)[C@H]2O)[C@H](O)[C@@H](O)[C@H]1O` (mixture of isomers) [lactulose], the “clinically recurrent HE at day 14” value ([1]; after systematic withdrawal of lactulose, seven patients) is reported as “None of the patients had clinically recurrent HE”, the “abundance of Faecalibacterium spp. post-withdrawal” value ([1]; stool, 14 days off lactulose, p=0.026 vs on lactulose) is reported as 1% and the “abundance of Veillonella spp. post-withdrawal” value ([1]; stool, 14 days off lactulose, trend, p=0.07) is reported as 0%. For the same compound, the “abundance of Alcaligenaceae” value [1, 3] was 2.6%, the “abundance of Alistipes” value [1, 3] was 3% and the “abundance of Bacteroides” value [1, 3] was 35%. The “abundance of Clostridium spp.” value [1, 3] was less than 1%, the “abundance of Dialister” value [1, 3] was 2% and the “abundance of Faecalibacterium” value [1, 3] was 7% and 6%. The “abundance of Hafnia” value [1, 3] was 2%, the “abundance of Hallella” value [1, 3] was 4% and the “abundance of Lachnospira” value [1, 3] was 5%. For the same compound, the “abundance of Lactobacillus spp.” value [1, 3] was less than 1%, the “abundance of Parabacteroides spp.” value [1, 3] was 2% and the “abundance of Porphyromonadaceae” value [1, 3] was 1.7%. The “abundance of Prevotella” value [1, 3] was 13%, the “abundance of Roseburia” value [1, 3] was 3% and the “abundance of Ruminococcus spp.” value [1, 3] was less than 1%. For the same compound, the “abundance of Shigella spp.” value [1, 3] was less than 1%, the “abundance of Streptococcus spp.” value [1, 3] was less than 1% and the “abundance of Succinispira spp.” value [1, 3] was 2%. For the same compound, the “abundance of Sutterella spp.” value [1, 3] was 1%, the “abundance of Veillonella” value [1, 3] was 2% and the “other relative abundance change after lactulose withdrawal” value ([1]; stool, day 14, including Porphyromonadaceae and Alcaligenaceae) was “No other significant relative abundance change”. The Lachnospiraceae_Roseburia ([2]; p 0.005) was 1.9 % abundance, the “Incertae Sedis XIV_Blautia” value ([2]; p 0.008) was 4.2 % abundance and the Propionibacteriaceae_Propionibacterium ([2]; p 0.03) was 1.1 % abundance. For the same compound, the Rikenellaceae_Alistipes ([2]; p 0.03) was 1.8 % abundance and the Veillonellaceae_Other ([2]; p 0.03) was 1.1 % abundance.
